Results reported in patent publication US20190292179A1 (BRISTOL-MYERS SQUIBB COMPANY, priority 2016, published 2019).
Structures can show the parent of a compound that is named as a salt.

Columns and labels:
HIS-TGFβR1 T204D = target: T1, HIS-TGFβR1 T204D (Homo sapiens, UniProt P36897, T204D); assay: HTRF probe-displacement assay with HIS-TGFβR1 T204D; assay type: binding; details: 1 nM HIS-TGFβR1 T204D, labeled probe at Kd, 1 hour at room temperature
T1 sequence (P36897 34-503 T204D): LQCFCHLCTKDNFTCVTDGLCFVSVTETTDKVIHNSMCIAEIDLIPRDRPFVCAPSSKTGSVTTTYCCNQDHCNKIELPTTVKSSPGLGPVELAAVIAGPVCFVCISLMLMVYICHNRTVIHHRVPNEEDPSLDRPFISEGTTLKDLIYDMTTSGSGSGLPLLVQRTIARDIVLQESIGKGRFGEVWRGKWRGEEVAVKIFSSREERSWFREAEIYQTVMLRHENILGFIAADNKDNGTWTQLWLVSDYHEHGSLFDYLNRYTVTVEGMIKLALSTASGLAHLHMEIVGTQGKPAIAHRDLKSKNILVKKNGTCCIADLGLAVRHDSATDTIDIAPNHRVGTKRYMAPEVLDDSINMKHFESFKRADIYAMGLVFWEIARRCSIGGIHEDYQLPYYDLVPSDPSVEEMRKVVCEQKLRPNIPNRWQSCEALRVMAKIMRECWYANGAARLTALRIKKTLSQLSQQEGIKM
Experimental: (§1) The reaction is incubated for 1 hour at room temperature and the HTRF signal was measured on an Envision plate reader (Ex: 340 nm; Em: 520 nm/495 nm). Inhibition data were calculated by comparison to no enzyme control reactions for 100% inhibition and vehicle-only reactions for 0% inhibition. The final concentration of reagents in the assay are 1 nM HIS-TGFβR1 T204D or HIS-TGFβR2 WT, 0.2 nM anti-HIS detection antibody, labeled small molecule probe (at Kd) and 0.5% DMSO. Dose response curves were generated to determine the concentration required inhibiting 50% of kinase activity (IC50). Compounds were dissolved at 10 mM in dimethylsulfoxide (DMSO) and evaluated at eleven concentrations. IC50 values were derived by non-linear regression analysis.

HIS-TGFβR2 WT = HIS-TGFβR2 WT (Homo sapiens, UniProt P37173); assay: HTRF probe-displacement assay with HIS-TGFβR2 WT; assay type: binding; details: 1 nM HIS-TGFβR2 WT, labeled probe at Kd, 1 hour at room temperature
Sequence of HIS-TGFβR2 WT (P37173 23-567): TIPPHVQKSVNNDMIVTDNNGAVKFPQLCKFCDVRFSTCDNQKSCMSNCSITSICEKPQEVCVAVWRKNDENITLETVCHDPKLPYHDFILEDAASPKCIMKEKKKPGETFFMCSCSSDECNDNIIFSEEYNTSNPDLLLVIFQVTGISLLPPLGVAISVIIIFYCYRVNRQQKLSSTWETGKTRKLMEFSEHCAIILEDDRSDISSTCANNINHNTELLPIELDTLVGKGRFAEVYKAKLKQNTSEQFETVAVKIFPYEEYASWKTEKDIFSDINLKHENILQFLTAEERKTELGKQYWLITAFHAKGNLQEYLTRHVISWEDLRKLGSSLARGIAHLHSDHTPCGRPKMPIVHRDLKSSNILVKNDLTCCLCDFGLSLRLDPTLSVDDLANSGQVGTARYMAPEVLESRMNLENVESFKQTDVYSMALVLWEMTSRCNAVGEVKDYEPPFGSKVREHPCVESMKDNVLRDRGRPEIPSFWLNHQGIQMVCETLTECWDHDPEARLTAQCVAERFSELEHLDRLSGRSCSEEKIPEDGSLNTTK
Experimental: as §1

## Cc1cccc(-c2nn(CC(F)F)cc2-c2ccc3ncc(C(N)=O)n3c2)n1 [Example 28, 6-(1-(2,2-difluoroethyl)-3-(6-methylpyridin-2-yl)-1H-pyrazol-4-yl)imidazo[1,2-a]pyridine-3-carboxamide]
HIS-TGFβR1 T204D
  IC50: 0.001 µM
HIS-TGFβR2 WT
  IC50: 0.075 µM

## Cn1cc(-c2ccc3ncc(C#N)n3c2)c(-c2ccc(F)cc2)n1 [Example 37, 6-(3-(4-fluorophenyl)-1-methyl-1H-pyrazol-4-yl)imidazo[1,2-a]pyridine-3-carbonitrile]
HIS-TGFβR1 T204D
  IC50: 0.042 µM
HIS-TGFβR2 WT
  IC50: 0.165 µM

## Cn1cc(-c2ccc3ncc(C(N)=O)n3c2)c(-c2ccc(F)cc2)n1 [Example 38, 6-(3-(4-fluorophenyl)-1-methyl-1H-pyrazol-4-yl)imidazo[1,2-a]pyridine-3-carboxamide]
HIS-TGFβR1 T204D
  IC50: 0.002 µM
HIS-TGFβR2 WT
  IC50: 1.54 µM

## Cn1nc(-c2ccc(F)cc2)c(-c2ccc3ncc(C(N)=O)n3c2)c1C1CC1 [Example 94, 6-(5-cyclopropyl-3-(4-fluorophenyl)-1-methyl-1H-pyrazol-4-yl)imidazo[1,2-a]pyridine-3-carboxamide]
HIS-TGFβR1 T204D
  IC50: 0.001 µM
HIS-TGFβR2 WT
  IC50: 0.806 µM

## NC(=O)c1cnc2ccc(-c3c[nH]nc3-c3ccc(F)cc3)nn12 [Example 14, 6-(3-(4-fluorophenyl)-1H-pyrazol-4-yl)imidazo[1,2-b]pyridazine-3-carboxamide]
HIS-TGFβR1 T204D
  IC50: 0.004 µM
HIS-TGFβR2 WT
  IC50: 0.885 µM

## N#CCn1cc(-c2ccc3ncc(C#N)n3c2)c(-c2ccc(F)c(Cl)c2)n1 [Example 43, 6-(3-(3-chloro-4-fluorophenyl)-1-(cyanomethyl)-1H-pyrazol-4-yl)imidazo[1,2-a]pyridine-3-carbonitrile]
HIS-TGFβR1 T204D
  IC50: 0.001 µM
HIS-TGFβR2 WT
  IC50: 0.463 µM

## Cc1cccc(-c2n[nH]c(C(C)C)c2-c2ccc3ncc(C#N)n3c2)n1 [Example 114, 6-(5-isopropyl-3-(6-methylpyridin-2-yl)-1H-pyrazol-4-yl) imidazo [1,2-a]pyridine-3-carbonitrile]
HIS-TGFβR1 T204D
  IC50: 0.001 µM
HIS-TGFβR2 WT
  IC50: 0.761 µM

## N#Cc1cnc2ccc(-c3c(-c4ccc(F)cc4)n[nH]c3C3CC3)cn12 [Example 84, 6-(5-cyclopropyl-3-(4-fluorophenyl)-1H-pyrazol-4-yl)imidazo[1,2-a]pyridine-3-carbonitrile]
HIS-TGFβR1 T204D
  IC50: 0.003 µM
HIS-TGFβR2 WT
  IC50: 2.68 µM

## CC(C)(O)c1cnc2ccc(-c3c[nH]nc3-c3ccc(F)cc3)cn12 [Example 59, 2-(6-(3-(4-fluorophenyl)-1H-pyrazol-4-yl)imidazo[1,2-a]pyridin-3-yl)propan-2-ol]
HIS-TGFβR1 T204D
  IC50: 0.241 µM
HIS-TGFβR2 WT
  IC50: 5.34 µM

## Cc1cc(-c2n[nH]c(C3CC3)c2-c2ccc3ncc(C#N)n3c2)ccc1F [Example 99, 6-(5-cyclopropyl-3-(4-fluoro-3-methylphenyl)-1H-pyrazol-4-yl)imidazo[1,2-a]pyridine-3-carbonitrile]
HIS-TGFβR1 T204D
  IC50: 0.001 µM
HIS-TGFβR2 WT
  IC50: 2.98 µM

## Clc1ccc(-c2n[nH]cc2-c2ccc3nccn3c2)cc1 [Example 45, 6-(3-(4-chlorophenyl)-1H-pyrazol-4-yl)imidazo[1,2-a]pyridine]
HIS-TGFβR1 T204D
  IC50: 0.112 µM
HIS-TGFβR2 WT
  IC50: 4.23 µM

## CCc1[nH]nc(-c2cccc(C)n2)c1-c1ccc2ncc(C(N)=O)n2c1 [Example 125, 6-(5-ethyl-3-(6-methylpyridin-2-yl)-1H-pyrazol-4-yl)imidazo[1,2-a]pyridine-3-carboxamide]
HIS-TGFβR1 T204D
  IC50: 0.001 µM
HIS-TGFβR2 WT
  IC50: 0.013 µM

## NC(=O)c1cnc2ccc(-c3c[nH]nc3-c3cccc(C(F)(F)F)n3)cn12 [Example 2, 6-(3-(6-(trifluoromethyl)pyridin-2-yl)-1H-pyrazol-4-yl)imidazo[1,2-a]pyridine-3-carboxamide]
HIS-TGFβR1 T204D
  IC50: 0.001 µM
HIS-TGFβR2 WT
  IC50: 1.83 µM

## Cc1cccc(-c2n[nH]c(C3CC3)c2-c2ccc3ncc(C(N)=O)n3c2)n1 [Example 122, 6-(5-cyclopropyl-3-(6-methylpyridin-2-yl)-1H-pyrazol-4-yl)imidazo[1,2-a]pyridine-3-carboxamide]
HIS-TGFβR1 T204D
  IC50: 0.001 µM
HIS-TGFβR2 WT
  IC50: 0.004 µM

## N#Cc1cnc2ccc(-c3cn(CCO)nc3-c3ccc(F)c(Cl)c3)cn12 [Example 44, 6-(3-(3-chloro-4-fluorophenyl)-1-(2-hydroxyethyl)-1H-pyrazol-4-yl)imidazo[1,2-a]pyridine-3-carbonitrile]
HIS-TGFβR1 T204D
  IC50: 0.002 µM
HIS-TGFβR2 WT
  IC50: 0.369 µM

## Cc1cccc(-c2n[nH]c(CO)c2-c2ccc3nccn3c2)n1 [Example 141, (4-(imidazo[1,2-a]pyridin-6-yl)-3-(6-methylpyridin-2-yl)-1H-pyrazol-5-yl)methanol]
HIS-TGFβR1 T204D
  IC50: 0.001 µM
HIS-TGFβR2 WT
  IC50: 4.47 µM

## O=C(NC1CC1)c1cnc2ccc(-c3c(-c4ccc(F)cc4)n[nH]c3C3CC3)cn12 [Example 92, N-cyclopropyl-6-(5-cyclopropyl-3-(4-fluorophenyl)-1H-pyrazol-4-yl)imidazo[1,2-a]pyridine-3-carboxamide]
HIS-TGFβR1 T204D
  IC50: 0.001 µM
HIS-TGFβR2 WT
  IC50: 2.65 µM

## N#Cc1cnc2ccc(-c3c[nH]nc3-c3ccc(F)cc3)cn12 [Example 35, 6-(3-(4-fluorophenyl)-1H-pyrazol-4-yl)imidazo[1,2-a]pyridine-3-carbonitrile]
HIS-TGFβR1 T204D
  IC50: 0.011 µM
HIS-TGFβR2 WT
  IC50: 0.221 µM

## CC(C)c1c(-c2ccc3ncc(C(N)=O)n3c2)c(-c2ccc(F)cc2)nn1C [Example 72]
HIS-TGFβR1 T204D
  IC50: 0.002 µM
HIS-TGFβR2 WT
  IC50: 0.963 µM

## CC(C)c1[nH]nc(-c2ccc(Cl)cc2)c1-c1ccc2ncc(C(N)=O)n2c1 [Example 76, 6-(3-(4-chlorophenyl)-5-isopropyl-1H-pyrazol-4-yl)imidazo[1,2-a]pyridine-3-carboxamide]
HIS-TGFβR1 T204D
  IC50: 0.001 µM
HIS-TGFβR2 WT
  IC50: 6.59 µM

## CCc1[nH]nc(-c2cccc(C)n2)c1-c1ccc2ncc(C#N)n2c1 [Example 124, 6-(5-ethyl-3-(6-methylpyridin-2-yl)-1H-pyrazol-4-yl)imidazo[1,2-a]pyridine-3-carbonitrile]
HIS-TGFβR1 T204D
  IC50: 0.001 µM
HIS-TGFβR2 WT
  IC50: 2.06 µM

## Fc1ccc(-c2n[nH]cc2-c2ccc3nccn3c2)cc1 [Example 34, 6-(3-(4-fluorophenyl)-1H-pyrazol-4-yl)imidazo[1,2-a]pyridine]
HIS-TGFβR1 T204D
  IC50: 0.014 µM
HIS-TGFβR2 WT
  IC50: 5.02 µM

## CC(C)(C)Nc1cnc2ccc(-c3c[nH]nc3-c3ccc(F)cc3)cn12 [Example 15, N-(tert-butyl)-6-(3-(4-fluorophenyl)-1H-pyrazol-4-yl)imidazo[1,2-a]pyridin-3-amine]
HIS-TGFβR1 T204D
  IC50: 0.502 µM
HIS-TGFβR2 WT
  IC50: 12.7 µM

## CCc1[nH]nc(-c2cccc(C)n2)c1-c1ccc2nccn2c1 [Example 126, 6-(5-ethyl-3-(6-methylpyridin-2-yl)-1H-pyrazol-4-yl)imidazo[1,2-a]pyridine]
HIS-TGFβR1 T204D
  IC50: 0.001 µM
HIS-TGFβR2 WT
  IC50: 3.15 µM

## NC(=O)c1cnc2ccc(-c3c[nH]nc3-c3ccc(F)cc3)cn12 [Example 36, 6-(3-(4-fluorophenyl)-1H-pyrazol-4-yl)imidazo[1,2-a]pyridine-3-carboxamide]
HIS-TGFβR1 T204D
  IC50: 0.002 µM
HIS-TGFβR2 WT
  IC50: 0.696 µM

## N#Cc1cnc2ccc(-c3cn(CC(F)F)nc3-c3ccc(F)c(Cl)c3)cn12 [Example 61, 6-(3-(3-chloro-4-fluorophenyl)-1-(2,2-difluoroethyl)-1H-pyrazol-4-yl)imidazo[1,2-a]pyridine-3-carbonitrile]
HIS-TGFβR1 T204D
  IC50: 0.007 µM
HIS-TGFβR2 WT
  IC50: 2.28 µM

## Fc1ccc(-c2n[nH]cc2-c2ccc3nncn3c2)cc1 [Example 31, 6-(3-(4-fluorophenyl)-1H-pyrazol-4-yl)-[1,2,4]triazolo[4,3-a]pyridine, TFA]
HIS-TGFβR1 T204D
  IC50: 0.112 µM
HIS-TGFβR2 WT
  IC50: 9.17 µM

## Fc1ccc(-c2n[nH]cc2-c2ccc3nccn3c2)cc1Cl [Example 40, 6-(3-(3-chloro-4-fluorophenyl)-1H-pyrazol-4-yl)imidazo[1,2-a]pyridine, TFA]
HIS-TGFβR1 T204D
  IC50: 0.003 µM
HIS-TGFβR2 WT
  IC50: 4.97 µM

## Fc1ccc(-c2n[nH]cc2-c2ccc3nccn3n2)cc1Cl [Example 39, 6-(3-(3-chloro-4-fluorophenyl)-1H-pyrazol-4-yl)imidazo[1,2-b]pyridazine, TFA]
HIS-TGFβR1 T204D
  IC50: 0.004 µM
HIS-TGFβR2 WT
  IC50: 1.65 µM

## CCc1c(-c2ccc3ncc(C(N)=O)n3c2)c(-c2cccc(C)n2)nn1C [Example 127, 6-(5-ethyl-1-methyl-3-(6-methylpyridin-2-yl)-1H-pyrazol-4-yl)imidazo[1,2-a]pyridine-3-carboxamide]
HIS-TGFβR1 T204D
  IC50: 0.001 µM
HIS-TGFβR2 WT
  IC50: 0.128 µM

## N#Cc1cnc2ccc(-c3c[nH]nc3-c3ccc(Cl)cc3)cn12 [Example 46, 6-(3-(4-chlorophenyl)-1H-pyrazol-4-yl)imidazo[1,2-a]pyridine-3-carbonitrile]
HIS-TGFβR1 T204D
  IC50: 0.092 µM
HIS-TGFβR2 WT
  IC50: 0.214 µM

## Cc1cc(-c2n[nH]c(C(C)C)c2-c2ccc3ncc(C(N)=O)n3c2)ccc1F [Example 79, 6-(3-(4-fluoro-3-methylphenyl)-5-isopropyl-1H-pyrazol-4-yl)imidazo[1,2-a]pyridine-3-carboxamide]
HIS-TGFβR1 T204D
  IC50: 0.001 µM
HIS-TGFβR2 WT
  IC50: 0.136 µM

## Cc1nc(-c2nn(C)cc2-c2ccc3ncc(C#N)n3c2)ccc1F [Example 11, 6-(3-(5-fluoro-6-methylpyridin-2-yl)-1-methyl-1H-pyrazol-4-yl)imidazo[1,2-a]pyridine-3-carbonitrile]
HIS-TGFβR1 T204D
  IC50: 0.001 µM
HIS-TGFβR2 WT
  IC50: 5.42 µM
